Data on two molecules can be found in paper PMC4901392 (Cell host & microbe, 2016).

In one test the test system is ZigA. Particulars: read-out: apparent Km; Zn-bound ZigA (2 µM), 2 mM MgCl2, 150 mM NaCl, 20 mM Tris-HCl pH 8.0.
The target in test [1] is ZigA (Zur-induced GTPase A) (A. baumannii). Briefly: SEC.

`Nc1nc2c(ncn2[C@@H]2O[C@H](COP(=O)(O)OP(=O)(O)OP(=O)(O)O)[C@@H](O)[C@H]2O)c(=O)[nH]1` [GTP]: in the test on ZigA, the Km came out at 150 µM.

On to ZigA (Zur-induced GTPase A) (enzyme), for which the stoichiometry N in test [1] came out at 2.
